In this experiment the target is T1, rat LHRH receptor (Rattus norvegicus, UniProt P30969).
T1 construct: expressed in transfected cells; host or cells: LTK cells (mouse fibroblasts, ATCC CCL-1.3)
T1 sequence (P30969 1-327): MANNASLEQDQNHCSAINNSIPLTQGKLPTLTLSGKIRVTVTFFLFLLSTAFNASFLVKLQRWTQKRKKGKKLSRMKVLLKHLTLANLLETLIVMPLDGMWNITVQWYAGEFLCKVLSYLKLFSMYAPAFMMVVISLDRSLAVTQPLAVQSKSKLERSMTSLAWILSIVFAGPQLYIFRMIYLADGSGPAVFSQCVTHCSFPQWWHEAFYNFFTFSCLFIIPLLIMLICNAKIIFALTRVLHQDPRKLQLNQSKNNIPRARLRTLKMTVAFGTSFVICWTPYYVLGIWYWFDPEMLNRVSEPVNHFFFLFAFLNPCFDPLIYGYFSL
The experiment can be described thus: LHRH receptor-ligand binding assay (transfected LTK cells). The protocol: ^125I-Triptorelin [^125I-(D)-Trp6-GnRH] was purchased from Biotrend (Cologne, Germany).
The specific activity was in each case 2.13 Ci/mmol.
LTK cells (mouse fibroblasts: ATCC No. CCL-1.3) which have been transfected with the rat LHRH receptor are cultivated in DMEM medium (Invitrogen Life Technologies, Germany) with penicillin (100 I.U./ml), streptomycin (0.1 mg/ml) and glutamine (0.01 mol/l) and 10% fetal calf serum (FCS; Invitrogen Life Technologies, Germany) on plastic tissue culture plates (Nunc, Germany, 245×245-20 mm).
80% confluent cell culture plates are washed twice with 50 ml of phosphate-buffered saline (PBS) and then detached with 0.01 M EDTA solution. The cells are pelleted by centrifugation at 200·g for 5 min in a laboratory centrifuge (Kendro, Germany). The cell pellet is resuspended in 3 ml of binding medium (DMEM; 10 mM Hepes; 0.5% BSA; 0.1% […]; 1 g/l bacitracin (add fresh, stock 100×); 0.1 g/l SBTI (add fresh, stock 1000×) and the cell count is determined by Trypan blue staining in a Neubauer counting chamber. The cell suspension is adjusted with binding medium to a concentration of 5×10^5 cells/0.05 ml.
Binding studies for competition plots are carried out as duplicates. The test substances are employed as 10 mM DMSO solutions. They are diluted to 4 times the final concentration employed with binding medium. 25 μl of the substance dilution are mixed with 25 μl of tracer solution (^125I-triptorelin or ^125I-cetrorelix). The tracer concentration is adjusted to approx. 50 000 cpm (measured in a Cobra II, γ counter. PE Liefe Science, Germany) in the final reaction volume of 100 μl.
200 μl of silicone/liquid paraffin mixture (84%:16%) are introduced into 650 μl conical tubes (Roth. Germany). 50 μl of the cell suspension are pipetted thereon, followed by 50 μl of the test substance/tracer mixture. The tubes are capped and incubated with vertical rotation in an incubator at 37° C. for 60 min. After incubation, the samples are centrifuged in a centrifuge (Kendro, Germany) at 900 rpm and subsequently shock-frozen in liquid N2. The tip with the cell pellet is cut off and transferred into prepared counting vials (Roth, Germany). The remainder of the conical tube with the remaining supernatant is likewise transferred into a counting vial. The measurement takes place in a γ counter for 1 min/sample.
Evaluation of the samples takes place after calculation of the specific binding compared with untreated cells, after subtraction of the nonspecific binding (excess of unlabeled ligand, 1 μM) by means of GraphPad Prism or alternatively by means of OMMM software.

Where [1] appears, read: LTK cells transfected with rat LHRH receptor, 125I-triptorelin tracer, 37° C., 60 min, read-out: Binding to r-LHRHR EC50.

Where a name gives a salt, the structure may show the parent alone. Read-outs that look alike come from different tables or passages of the source.

Regarding “2-chlorobenzyl {(S)-1-[(R)-3-((S)-carbamoyl-2-methylbutylcarbamoyl)-6,8-dichloro-2,3,4,9-tetrahydro-1H-carbazol-3-ylcarbamoyl]-2-methylbutyl}carbamate [Compound 6]”, under setting [1], the 50% effective concentration (EC50) was found to be 104 nM.
Consider `CC(C)[C@H](NC(=O)[C@@]1(NC(=O)[C@@H](NC(=O)OCc2ccc(Cl)cc2)C(C)C)CCc2[nH]c3c(Cl)cc(Cl)cc3c2C1)C(N)=O` [Compound 1, 4-chlorobenzyl {(S)-1-[(R)-3-((S)-1-carbamoyl-2-methylpropylcarbamoyl)-6,8-dichloro-2,3,4,9-tetrahydro-1H-carbazol-3-ylcarbamoyl]-2-methylpropyl}carbamate], for which the EC50 under setting [1] was found to be 261 nM.
In the case of `CCC(C)[C@H](NC(=O)OCc1ccc(Cl)cc1)C(=O)N[C@]1(C(=O)N[C@H](C(N)=O)C(C)C)CCc2[nH]c3c(Cl)cc(Cl)cc3c2C1` (stereo partly drawn) [Compound 2, 4-chlorobenzyl {(S)-1-[(R)-3-((S)-1-carbamoyl-2-methylpropylcarbamoyl)-6,8-dichloro-2,3,4,9-tetrahydro-1H-carbazol-3-ylcarbamoyl]-2-methylbutyl}carbamate], the EC50 under setting [1] worked out at 205 nM.
Take `CCC(C)[C@H](NC(=O)[C@@]1(NC(=O)[C@@H](NC(=O)OCc2ccc(Cl)cc2)C(C)CC)CCc2[nH]c3c(Cl)cc(Cl)cc3c2C1)C(N)=O` (stereo partly drawn) [Compound 3, 4-chlorobenzyl {(S)-1-[(R)-3-((S)-carbamoyl-2-methylbutylcarbamoyl)-6,8-dichloro-2,3,4,9-tetrahydro-1H-carbazol-3-ylcarbamoyl]-2-methylbutyl}carbamate]: the EC50 under setting [1] came out at 47.2 nM.
The same measure, in the same setting: the same measure for `CCC(C)[C@H](NC(=O)[C@@]1(NC(=O)[C@@H](NC(=O)Cc2cccc(F)c2)C(C)CC)CCc2[nH]c3c(Cl)cc(Cl)cc3c2C1)C(N)=O` (stereo partly drawn) [Compound 5, (R)-6,8-dichloro-3-{(S)-2-[2-(3-fluorophenyl)acetylamino]-3-methylpentanoylamino}-2,3,4,9-tetrahydro-1H-carbazole-3-carboxylic acid ((S)-1-carbamoyl-2-methylbutyl)amide]: 98.3 nM.
Take `CCC(C)[C@H](NC(=O)[C@@]1(NC(=O)[C@H](CCc2ccc(OC(=O)OCc3ccccc3)cc2)NC(=O)OCc2ccccc2)CCc2[nH]c3c(Cl)cc(Cl)cc3c2C1)C(N)=O` (stereo partly drawn) [Compound 8, benzyl 4-{(S)-3-benzyloxycarbonylamino-3-[(R)-3-((S)-1-carbamoyl-2-methylbutylcarbamoyl)-6,8-dichloro-2,3,4,9-tetrahydro-1H-carbazol-3-ylcarbamoyl]propyl}phenylcarbonate]: the EC50 under setting [1] worked out at 45.3 nM.
In the case of `CCC(C)[C@H](NC(=O)[C@@]1(NC(=O)[C@H](CCc2ccc(OP(=O)(O)O)cc2)NC(=O)OCc2ccccc2)CCc2[nH]c3c(Cl)cc(Cl)cc3c2C1)C(N)=S` (stereo partly drawn) [Compound 12, benzyl[(S)-1-[(R)-6,8-dichloro-3-((S)-2-methyl-1-thiocarbamoylbutylcarbamoyl)-2,3,4,9-tetrahydro-1H-carbazol-3-ylcarbamoyl]-3-(4-phosphonooxyphenyl)propyl]carbamate], the EC50 was 39.2 nM.
As to `CCC(C)[C@H](NC(=O)Cc1ccccc1F)C(=O)N[C@]1(C(=O)N[C@H](C(N)=S)C(C)CC)CCc2[nH]c3c(Cl)cc(Cl)cc3c2C1` (stereo partly drawn) [Compound 13, (R)-6,8-dichloro-3-{(S)-2-[2-(2-fluorophenyl)acetylamino]-3-methylpentanoylamino}-2,3,4,9-tetrahydro-1H-carbazole-3-carboxylic acid ((S)-2-methyl-1-thiocarbamoylbutyl)amide], the EC50 under setting [1] was 2.4 nM.
As for `CCC(C)[C@H](NC(=O)[C@@]1(NC(=O)[C@H](CCc2ccc(O)cc2)NC(=O)Cc2ccccc2F)CCc2[nH]c3c(Cl)cc(Cl)cc3c2C1)C(N)=S` (stereo partly drawn) [Compound 14, (R)-6,8-dichloro-3-[(S)-2-[2-(2-fluorophenyl)acetylamino]-4-(4-hydroxyphenyl)butyrylamino]-2,3,4,9-tetrahydro-1H-carbazole-3-carboxylic acid ((S)-2-methyl-1-thiocarbamoyl-butyl)amide], under setting [1], the EC50 amounted to 2.05 nM.
Take `CCC(C)[C@H](NC(=O)CCc1ccc(F)cc1)C(=O)N[C@]1(C(=O)N[C@H](C(N)=O)C(C)C)CCc2[nH]c3c(Cl)cc(Cl)cc3c2C1` (stereo partly drawn) [Compound 16, (R)-6,8-dichloro-3-((S)-2-[3-(4-fluorophenyl)propionylamino]-3-methylpentanoylamino)-2,3,4,9-tetrahydro-1H-carbazole-3-carboxylic acid ((S)-1-carbamoyl-2-methylpropyl)amide]: the EC50 under setting [1] is 628 nM.
As for `CC(C)[C@H](NC(=O)[C@@]1(NC(=O)[C@H](CCCCN)NC(=O)CCc2ccc(F)cc2)CCc2[nH]c3c(Cl)cc(Cl)cc3c2C1)C(N)=O` [Compound 17, (S)-5-[(R)-3-((S)-1-carbamoyl-2-methylpropylcarbamoyl)-6,8-dichloro-2,3,4,9-tetrahydro-1H-carbazol-3-ylcarbamoyl]-5-[3-(4-fluorophenyl)propionylamino]pentylammonium trifluoroacetate], the EC50 under setting [1] is 525 nM.
Regarding `CCC(C)[C@H](NC(=O)[C@@]1(NC(=O)[C@H](CCc2ccc(O)cc2)NC(=O)CCc2ccccc2F)CCc2[nH]c3c(Cl)cc(Cl)cc3c2C1)C(N)=O` (stereo partly drawn) [Compound 22], the EC50 under setting [1] is 24.6 nM.
As for `CCC(C)[C@H](NC(=O)[C@@]1(NC(=O)[C@@H](NC(=O)CCc2ccccc2F)C(C)CC)CCc2[nH]c3c(Cl)cc(Cl)cc3c2C1)C(N)=O` (stereo partly drawn) [Compound 23, (R)-6,8-dichloro-3-{(S)-2-[3-(2-fluorophenyl)propionylamino]-3-methylpentanoylamino}-2,3,4,9-tetrahydro-1H-carbazole-3-carboxylic acid ((S)-1-carbamoyl-2-methylbutyl)amide], the EC50 under setting [1] was found to be 72.9 nM.
For `CCC(C)[C@H](NC(=O)[C@@]1(NC(=O)[C@H](CCc2ccc(OCCOCCOCCOCCOC)cc2)NC(=O)OCc2ccccc2)CCc2[nH]c3c(Cl)cc(Cl)cc3c2C1)C(N)=S` (stereo partly drawn) [Compound 24, benzyl {(S)-1-[(R)-6,8-dichloro-3-((S)-2-methyl-1-thiocarbamoylbutylcarbamoyl)-2,3,4,9-tetrahydro-1H-carbazol-3-ylcarbamoyl]-3-[4-(2-{2-[2-(2-methoxyethoxy)ethoxy]-ethoxy}ethoxy)phenyl]propyl}carbamate], the EC50 under setting [1] was found to be 13.5 nM.
With `CCC(C)[C@H](NC(=O)OCc1ccccc1)C(=O)N[C@]1(C(=O)N[C@H](C(N)=S)C(C)CC)CCc2[nH]c3c(Cl)cc(F)cc3c2C1` (stereo partly drawn) [Compound 25, benzyl {(S)-1-[(R)-8-chloro-6-fluoro-3-((S)-2-methyl-1-thiocarbamoylbutylcarbamoyl)-2,3,4,9-tetrahydro-1H-carbazol-3-ylcarbamoyl]-2-methylbutyl}carbamate], the EC50 under setting [1] was determined as 4.2 nM.

As usually defined, the EC50 is the midpoint of the concentration-response curve.

(Values after patent US8067456B2 (AEterna Zentaris GmbH, priority 2004, dated 2011).)
